Experimental data reported in patent US9145405B2, “Oxadiazole compound and preparation method thereof, pharmaceutical composition and use thereof” (SHANGHAI JIAO TONG UNIVERSITY, priority 2011, dated 2015).
≈ marks a conversion by molar mass, not a printed value. Read-outs that look alike come from different tables or passages of the source.

Experiments:
[1] = system: Vero cells; experiment: Toxicity (half toxic concentration) in the anti-Cox_B3 test on Vero cells; format: cell-based
[2] = system: Cox_B3 virus; experiment: Anti-Cox_B3 test: inhibition of cytopathic effect (CPE) in infected Vero cells, Reed-Muench; format: cell-based; settings: for IC50: read-out: IC50 (half-inhibitory concentration for viruses)
Description: The present examples verifies experimental results of anti-Cox_B3 of the compounds 1-137of the present invention, Pleconaril, 3-[3,5-dimethyl-4-[5-(3-methy-1,2-oxazolyl)propoxy]phenyl]-5-(trifluonomethyl) -1,2,4-oxadiazole is used as positive control.

[3] = Cox_B3 virus in Vero cells, CPE, Reed-Muench method

Row | Molecule | TC50 (half of the toxic concentration) ([1]; Vero cells, Cox_B3) | IC50 (half-inhibitory concentration for viruses) [2, 3] | TC50 (half of the toxic concentration) [1] | IC50 [2, 3] | IC50 ([2]; Vero)
1 | 3-[2-(2,6-dimethyl-4-[(5-(trifluoromethyl)-1,2,4-oxadiazole-3-yl)phenoxyl]ethoxyl]-2-formamide-6-fluoropyrazine [Compound 55] | 36.66 µg/mL | 0.16 µg/mL |  |  | 
2 | 3-[2,6-dimethyl-4-[(5-(trifluoromethyl)-1,2,4-oxadiazole-3-yl)phenoxyl]ethoxyl]-6-methylpyridazine [Compound 110] |  | 0.28 µg/mL | 36.89 µg/mL |  | 
3 | 3-[3,5-dimethyl-4-[2-(3-methyl-1,2,4-thiadiazole-5-thio)ethoxyl]phenyl]-5-(trifluoromethyl)-1,2,4-oxadiazole [Compound 23] |  | 0.12 µg/mL | 39.78 µg/mL |  | 
4 | 3-[3,5-dimethyl-4-[(2-(cyclohexyloxy)-ethoxyl)phenyl]-5-(trifluoromethyl)-1,2,4-oxadiazole [Compound 35] | 36.78 µg/mL | 0.08 µg/mL |  |  | 
5 | Cc1cc(-c2noc(C(F)(F)F)n2)cc(C)c1OCCOc1ccc(-c2noc(C(F)(F)F)n2)cc1F [Compound 123] |  | 0.043 µg/mL | 35.88 µg/mL |  | 
6 | Cc1cc(OCCOc2c(C)cc(-c3noc(C(F)(F)F)n3)cc2C)no1 [Compound 1, 3-[3,5-dimethyl-4-[2-(5-methylisoxazole-3-oxy)ethoxyl]phenyl]-5-(trifluoromethyl)-1,2,4-oxadiazole] | 50.67 µg/mL |  |  | 0.022 µg/mL (≈ 0.0574 µM) | 
7 | Cc1cc(OCCCOc2c(C)cc(-c3noc(C(F)(F)F)n3)cc2C)ns1 [Compound 11, 3-[3,5-dimethyl-4-[3-(5-methylisothiazole-3-oxy)propoxy]phenyl]-5-(trifluoromethyl)-1,2,4-oxadiazole] | 45.87 µg/mL |  |  | 0.058 µg/mL (≈ 0.14 µM) | 
8 | Cc1cc(OCCOc2c(C)cc(-c3noc(C(F)(F)F)n3)cc2C)[nH]n1 [Compound 15, 3-[3,5-dimethyl-4-[2-(3-methyl-1H-pyrazole-5-oxy)ethoxyl]phenyl]-5-(trifluoromethyl)-1,2,4-oxadiazole] | 42.38 µg/mL |  |  | 0.12 µg/mL (≈ 0.314 µM) | 
9 | Cc1cc(-c2noc(C(F)(F)F)n2)cc(C)c1OCCCOc1ncc(C#N)cn1 [Compound 132, 2-[3-[2,6-dimethyl-4-[5-(trifluoromethyl)-1,2,4-oxadiazole-3-yl]phenoxyl]propoxy]-5-cyano-pyrimidine] | 39.23 µg/mL |  |  | 0.04 µg/mL (≈ 0.0954 µM) | 
10 | Cc1cc(-c2noc(C(F)(F)F)n2)cc(C)c1OCCOc1ccc(-c2noc(C(F)(F)F)n2)cc1 [Compound 112, 3-[3,5-dimethyl-4-[2-[4-[5-(trifluoromethyl)-1,2,4-oxadiazole-3-yl]phenoxyl]ethoxyl]phenyl]-5-(trifluoromethyl)-1,2,4-oxadiazole] | 34.98 µg/mL |  |  | 0.032 µg/mL (≈ 0.0622 µM) | 
11 | 6-[2,6-dimethyl-4-[(5-(trifluoromethyl)-1,2,4-oxadiazole-3-yl)phenoxyl]ethoxyl]-3-cyanopyridine [Compound 50] |  | 0.087 µg/mL | 36.88 µg/mL |  | 
12 | COc1ccc(OCCOc2c(C)cc(-c3noc(C(F)(F)F)n3)cc2C)c(F)c1 [Compound 40, 3-[3,5-dimethyl-4-[(2-fluoro-4-methoxyphenoxyl)ethoxyl]phenyl]-5-(trifluoromethyl)-1,2,4-oxadiazole] | 45.39 µg/mL |  |  | 0.044 µg/mL (≈ 0.103 µM) | 
13 | 3-[3,5-dimethyl-4-[2-(4-methylthiazole-2-thio)ethoxyl]phenyl]-5-(trifluoromethyl)-1,2,4-oxadiazole [Compound 14] |  | 0.11 µg/mL | 40.58 µg/mL |  | 
14 | Cc1nnc(OCCOc2c(C)cc(-c3noc(C(F)(F)F)n3)cc2C)o1 [Compound 28, 3-[3,5-dimethyl-4-[2-[5-methyl-1,3,4-oxadiazole-2-oxy]ethoxyl]phenyl]-5-(trifluoromethyl)-1,2,4-oxadiazole] | 32.36 µg/mL |  |  | 0.11 µg/mL (≈ 0.286 µM) | 
15 | Cc1cc(-c2noc(C(F)(F)F)n2)cc(C)c1OCCCOc1cnc(C#N)cn1 [Compound 131, 2-cyano-5-[3-[2,6-dimethyl-4-[5-(trifluoromethyl)-1,2,4-oxadiazole-3-yl]phenoxyl]propoxy]pyrazine] | 36.87 µg/mL |  |  |  | 0.035 µg/mL (≈ 0.0835 µM)
16 | Cc1cc(-c2noc(C(F)(F)F)n2)cc(C)c1OCCSc1nnc(C(F)(F)F)[nH]1 [Compound 26, 3-[2-[2,6-dimethyl-4-[5-(trifluoromethyl)-1,2,4-oxadiazole-3-yl]phenoxyl]ethylthio]-5-trifluoromethyl-4H-1,2,4-triazole] | 38.35 µg/mL |  |  | 0.06 µg/mL (≈ 0.132 µM) | 
17 | Cc1cc(-c2noc(C(F)(F)F)n2)cc(C)c1OCCOc1ccc([N+](=O)[O-])cc1F [Compound 41, 3-[3,5-dimethyl-4-[(2-fluoro-4-nitrophenoxyl)ethoxyl]phenyl]-5-(trifluoromethyl)-1,2,4-oxadiazole] | 46.89 µg/mL |  |  | 0.033 µg/mL (≈ 0.0748 µM) | 
18 | COC(=O)c1cc(OCCOc2c(C)cc(-c3noc(C(F)(F)F)n3)cc2C)no1 [Compound 4, 3-[2-[2,6-dimethyl-4-[5-(trifluoromethyl)-1,2,4-oxadiazole-3-yl]phenoxyl]ethoxyl]-isoxazole-5-carboxylate] |  | 0.26 µg/mL | 35.58 µg/mL |  | 
19 | Cc1cc(-c2noc(C(F)(F)F)n2)cc(C)c1OCCCOc1ccc(-c2noc(C(F)(F)F)n2)nn1 [Compound 137, 3-[5-(trifluoromethyl)-1,2,4-oxadiazole-3-yl]-6-[3-[2,6-dimethyl-4-[5-(trifluoromethyl)-1,2,4-oxadiazole-3-yl]phenoxyl]propoxy]pyridazine] | 41.65 µg/mL |  |  | 0.039 µg/mL (≈ 0.0735 µM) | 
20 | Cc1nc(-c2cnc(OCCCOc3c(C)cc(-c4noc(C(F)(F)F)n4)cc3C)c(F)c2)no1 [Compound 121, 2-[3-[2,6-dimethyl-4-[5-(trifluoromethyl)-1,2,4-oxadiazole-3-yl]phenoxyl]propoxy]-3-fluoro-5-(5-methyl-1,2,4-oxadiazole-3-yl)-pyridine] | 36.17 µg/mL |  |  | 0.039 µg/mL (≈ 0.079 µM) | 
21 | Cc1nc(-c2cnc(OCCOc3c(C)cc(-c4noc(C(F)(F)F)n4)cc3C)c(F)c2)no1 [Compound 115, 2-[2-[2,6-dimethyl-4-[5-(trifluoromethyl)-1,2,4-oxadiazole-3-yl]phenoxyl]ethoxyl]-3-fluoro-5-(5-methyl-1,2,4-oxadiazole-3-yl)-pyridine] | 37.55 µg/mL |  |  | 0.037 µg/mL (≈ 0.0772 µM) | 
22 | COC(=O)c1cc(OCCCOc2c(C)cc(-c3noc(C(F)(F)F)n3)cc2C)no1 [Compound 7, 3-[3-[2,6-dimethyl-4-[5-(trifluoromethyl)-1,2,4-oxadiazole-3-yl]phenoxyl]propoxy]-isoxazole-5-carboxylate] |  | 0.24 µg/mL | 36.48 µg/mL |  | 
23 | Cc1cc(-c2noc(C(F)(F)F)n2)cc(C)c1OCCOc1cc(C(=O)O)nn1C [Compound 17, 5-[2-[2,6-dimethyl-4-[5-(trifluoromethyl)-1,2,4-oxadiazole-3-yl]phenoxyl]ethoxyl]-1-methyl-1H-pyrazole-3-carboxylic acid] | 44.39 µg/mL |  |  | 0.07 µg/mL (≈ 0.164 µM) | 
24 | 4-[2,6-dimethyl-4-[(5-(trifluoromethyl)-1,2,4-oxadiazole-3-yl)phenoxyl]ethoxyl]-2-methoxyl-5-fluoropyrimidine [Compound 54] |  | 0.067 µg/mL | 43.15 µg/mL |  | 
